# Experimental data as given in the supplement of paper PMC10307832.
# Compound: COc1ccc(-c2ccc3c(N4CCOC[C@@H]4C)nc(N4CCOC[C@@H]4C)nc3n2)cc1CO [AZD8055] + COc1cc2c(Oc3ccc(NC(=O)C4(C(=O)Nc5ccc(F)cc5)CC4)cc3F)ccnc2cc1OCCCN1CCOCC1 [Foretinib] (partner 0.25 µM)
# Assay: relative viability (nuclei count vs DMSO), 5 days (fraction); higher = more cells survive
# Summary of the method: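 For relative viability, nuclei counts in treated wells were divided by those in vehicle wells. Lung cancer cell lines had been pin-tool dosed in 1536-well plates the day after seeding and cultured for 5 days, then fixed and stained in one step (final 0.05% Triton X-100, 1% formaldehyde, 1 ug/ml Hoechst) and imaged at 4×. Doses were one drug alone or a fixed anchor-drug dose plus five library-drug doses (not always all listed) in √10 steps, and values are duplicate-plate medians.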
cell line,measurement,setting,value
LCLC-97TM1,relative viability,first compound 0.01 µM,0.963
same,relative viability,first compound 0.03162 µM,0.74
same,relative viability,first compound 0.1 µM,0.671
same,relative viability,first compound 0.3162 µM,0.417
same,relative viability,first compound 1 µM,0.529
HARA,relative viability,first compound 0.01 µM,0.983
same,relative viability,first compound 0.03162 µM,0.762
same,relative viability,first compound 0.1 µM,0.374
same,relative viability,first compound 0.3162 µM,0.272
same,relative viability,first compound 1 µM,0.258
HCC-78,relative viability,first compound 0.01 µM,0.496
same,relative viability,first compound 0.03162 µM,0.527
same,relative viability,first compound 0.1 µM,0.388
same,relative viability,first compound 0.3162 µM,0.417
same,relative viability,first compound 1 µM,0.308
NCI-H1666,relative viability,first compound 0.01 µM,0.981
same,relative viability,first compound 0.03162 µM,1
same,relative viability,first compound 0.1 µM,0.969
same,relative viability,first compound 0.3162 µM,0.694
same,relative viability,first compound 1 µM,0.615
NCI-H2347,relative viability,first compound 0.01 µM,0.804
same,relative viability,first compound 0.03162 µM,0.949
same,relative viability,first compound 0.1 µM,0.454
same,relative viability,first compound 0.3162 µM,0.403
same,relative viability,first compound 1 µM,0.386
NCI-H838,relative viability,first compound 0.01 µM,1
same,relative viability,first compound 0.03162 µM,0.913
same,relative viability,first compound 0.1 µM,0.597
same,relative viability,first compound 0.3162 µM,0.398
same,relative viability,first compound 1 µM,0.347
NCI-H2023,relative viability,first compound 0.01 µM,0.787
same,relative viability,first compound 0.03162 µM,0.817
same,relative viability,first compound 0.1 µM,0.654
same,relative viability,first compound 0.3162 µM,0.26
same,relative viability,first compound 1 µM,0.126
201T,relative viability,first compound 0.01 µM,1.34
same,relative viability,first compound 0.03162 µM,1.08
same,relative viability,first compound 0.1 µM,0.892
same,relative viability,first compound 0.3162 µM,0.391
same,relative viability,first compound 1 µM,0.328
NCI-H1915,relative viability,first compound 0.01 µM,1.12
same,relative viability,first compound 0.03162 µM,1.04
same,relative viability,first compound 0.1 µM,1.01
same,relative viability,first compound 0.3162 µM,0.574
same,relative viability,first compound 1 µM,0.527
NCI-H2009,relative viability,first compound 0.01 µM,1.27
same,relative viability,first compound 0.03162 µM,1.24
same,relative viability,first compound 0.1 µM,1.13
same,relative viability,first compound 0.3162 µM,0.912
same,relative viability,first compound 1 µM,0.367
BEN,relative viability,first compound 0.01 µM,0.533
same,relative viability,first compound 0.03162 µM,0.463
same,relative viability,first compound 0.1 µM,0.389
same,relative viability,first compound 0.3162 µM,0.284
same,relative viability,first compound 1 µM,0.284
PC-14,relative viability,first compound 0.01 µM,1.18
same,relative viability,first compound 0.03162 µM,1.04
same,relative viability,first compound 0.1 µM,1.07
same,relative viability,first compound 0.3162 µM,0.488
same,relative viability,first compound 1 µM,0.299
SK-MES-1,relative viability,first compound 0.01 µM,0.849
same,relative viability,first compound 0.03162 µM,0.819
same,relative viability,first compound 0.1 µM,0.81
same,relative viability,first compound 0.3162 µM,0.408
same,relative viability,first compound 1 µM,0.329
NCI-H727,relative viability,first compound 0.01 µM,0.713
same,relative viability,first compound 0.03162 µM,0.89
same,relative viability,first compound 0.1 µM,0.717
same,relative viability,first compound 0.3162 µM,0.307
same,relative viability,first compound 1 µM,0.394
NCI-H1355,relative viability,first compound 0.01 µM,0.865
same,relative viability,first compound 0.03162 µM,0.77
same,relative viability,first compound 0.1 µM,0.712
same,relative viability,first compound 0.3162 µM,0.332
same,relative viability,first compound 1 µM,0.278
NCI-H1975,relative viability,first compound 0.01 µM,0.86
same,relative viability,first compound 0.03162 µM,0.73
same,relative viability,first compound 0.1 µM,0.459
same,relative viability,first compound 0.3162 µM,0.284
same,relative viability,first compound 1 µM,0.24
LK-2,relative viability,first compound 0.01 µM,0.938
same,relative viability,first compound 0.03162 µM,0.938
same,relative viability,first compound 0.1 µM,0.648
same,relative viability,first compound 0.3162 µM,0.292
same,relative viability,first compound 1 µM,0.142
NCI-H661,relative viability,first compound 0.01 µM,1.06
same,relative viability,first compound 0.03162 µM,0.99
same,relative viability,first compound 0.1 µM,0.795
same,relative viability,first compound 0.3162 µM,0.5
same,relative viability,first compound 1 µM,0.425
HCC-366,relative viability,first compound 0.01 µM,0.979
same,relative viability,first compound 0.03162 µM,0.913
same,relative viability,first compound 0.1 µM,0.687
same,relative viability,first compound 0.3162 µM,0.428
same,relative viability,first compound 1 µM,0.417
HOP-62,relative viability,first compound 0.01 µM,1.01
same,relative viability,first compound 0.03162 µM,1.01
same,relative viability,first compound 0.1 µM,1.09
same,relative viability,first compound 0.3162 µM,0.609
same,relative viability,first compound 1 µM,0.521
NCI-H1944,relative viability,first compound 0.01 µM,1.04
same,relative viability,first compound 0.03162 µM,0.793
same,relative viability,first compound 0.1 µM,0.648
same,relative viability,first compound 0.3162 µM,0.409
same,relative viability,first compound 1 µM,0.321
SW 1573,relative viability,first compound 0.01 µM,0.86
same,relative viability,first compound 0.03162 µM,0.645
same,relative viability,first compound 0.1 µM,0.803
same,relative viability,first compound 0.3162 µM,0.516
same,relative viability,first compound 1 µM,0.251
LU99A,relative viability,first compound 0.01 µM,0.859
same,relative viability,first compound 0.03162 µM,0.627
same,relative viability,first compound 0.1 µM,0.681
same,relative viability,first compound 0.3162 µM,0.264
same,relative viability,first compound 1 µM,0.302
NCI-H647,relative viability,first compound 0.01 µM,1.18
same,relative viability,first compound 0.03162 µM,0.941
same,relative viability,first compound 0.1 µM,0.61
same,relative viability,first compound 0.3162 µM,0.405
same,relative viability,first compound 1 µM,0.229
A-427,relative viability,first compound 0.01 µM,0.954
same,relative viability,first compound 0.03162 µM,0.983
same,relative viability,first compound 0.1 µM,0.856
same,relative viability,first compound 0.3162 µM,0.491
same,relative viability,first compound 1 µM,0.416
COR-L 105,relative viability,first compound 0.01 µM,1.55
same,relative viability,first compound 0.03162 µM,1.03
same,relative viability,first compound 0.1 µM,1.31
same,relative viability,first compound 0.3162 µM,0.756
same,relative viability,first compound 1 µM,0.476
NCI-H441,relative viability,first compound 0.01 µM,0.925
same,relative viability,first compound 0.03162 µM,0.94
same,relative viability,first compound 0.1 µM,0.68
same,relative viability,first compound 0.3162 µM,0.349
same,relative viability,first compound 1 µM,0.37
NCI-H2126,relative viability,first compound 0.01 µM,1.32
same,relative viability,first compound 0.03162 µM,1.05
same,relative viability,first compound 0.1 µM,0.91
same,relative viability,first compound 0.3162 µM,0.575
same,relative viability,first compound 1 µM,0.593
EBC-1,relative viability,first compound 0.01 µM,0.102
same,relative viability,first compound 0.03162 µM,0.126
same,relative viability,first compound 0.1 µM,0.116
same,relative viability,first compound 0.3162 µM,0.114
same,relative viability,first compound 1 µM,0.127
NCI-H460,relative viability,first compound 0.01 µM,1.12
same,relative viability,first compound 0.03162 µM,1.09
same,relative viability,first compound 0.1 µM,0.812
same,relative viability,first compound 0.3162 µM,0.376
same,relative viability,first compound 1 µM,0.206
SK-LU-1,relative viability,first compound 0.01 µM,0.784
same,relative viability,first compound 0.03162 µM,0.627
same,relative viability,first compound 0.1 µM,0.427
same,relative viability,first compound 0.3162 µM,0.258
same,relative viability,first compound 1 µM,0.212
NCI-H322M,relative viability,first compound 0.01 µM,0.933
same,relative viability,first compound 0.03162 µM,0.802
same,relative viability,first compound 0.1 µM,0.781
same,relative viability,first compound 0.3162 µM,0.573
same,relative viability,first compound 1 µM,0.6
EKVX,relative viability,first compound 0.01 µM,0.872
same,relative viability,first compound 0.03162 µM,1.25
same,relative viability,first compound 0.1 µM,0.731
same,relative viability,first compound 0.3162 µM,0.702
same,relative viability,first compound 1 µM,0.367
NCI-H1734,relative viability,first compound 0.01 µM,0.893
same,relative viability,first compound 0.03162 µM,0.748
same,relative viability,first compound 0.1 µM,0.565
same,relative viability,first compound 0.3162 µM,0.312
same,relative viability,first compound 1 µM,0.221
SW 900,relative viability,first compound 0.01 µM,1.03
same,relative viability,first compound 0.03162 µM,0.86
same,relative viability,first compound 0.1 µM,0.647
same,relative viability,first compound 0.3162 µM,0.654
same,relative viability,first compound 1 µM,0.409
ABC-1,relative viability,first compound 0.01 µM,1.2
same,relative viability,first compound 0.03162 µM,0.909
same,relative viability,first compound 0.1 µM,0.997
same,relative viability,first compound 0.3162 µM,0.701
same,relative viability,first compound 1 µM,0.324
NCI-H520,relative viability,first compound 0.01 µM,0.635
same,relative viability,first compound 0.03162 µM,0.344
same,relative viability,first compound 0.1 µM,0.35
same,relative viability,first compound 0.3162 µM,0.173
same,relative viability,first compound 1 µM,0.172
